# Reference: patent US20130230485A1, “Methods for Treating Patients Undergoing Multi-Cycle Chemotherapy” (priority 2012, published 2013)
# “Also recorded” adds a separate entry of the source.
# How the values were obtained:
# [1] = system: patients with recurrent ovarian cancer receiving gemcitabine and a platin; assay: Phase 2 study: pharmacodynamic effects on peripheral platelet counts and ANC; type: in vivo, human
# Text: (§1) Following Institutional Review Board protocol approval and patient signature of an informed consent form, eligible patients were randomized in a 1:1:1 ratio to receive 100 mcg/kg/day TXA127, 300 mcg/kg/day TXA127, or placebo with gemcitabine plus carboplatin or cisplatin. The randomization was stratified by the patients' intended chemotherapy regimen (see below). The Investigator, patient, and Sponsor were blinded to the treatment assignment. Treatment consisted of up to six consecutive 21-day cycles of one of the following chemotherapy regimens:
# (§2) Regimen A • Intravenous cisplatin therapy at a dose between 30 and 50 mg/m^2 (inclusive) given on Day 1 of the cycle • Intravenous gemcitabine at a dose of 800 mg/m^2 given on Day 1 after cisplatin and on Day 8 of the cycle • Regimen B • Intravenous gemcitabine at a dose of 1,000 mg/m^2 given on Days 1 and 8 of the cycle • Intravenous carboplatin AUC range of 4-6 given on Day 1 of the cycle after gemcitabine
# (§3) Study drug (TXA127 or placebo) was administered subcutaneously during each treatment cycle once daily for 5 consecutive days following the first chemotherapy agent (Days 2-6) and for 7 consecutive days following the second chemotherapy agent (Days 9-15). At Baseline, End-of-Treatment and weekly throughout each treatment cycle, blood specimens were collected for determination of hematologic variables. Hematologic responses were evaluated based on the National Cancer Institute Common Terminology Criteria for Adverse Events (NCl-CTCAE), Version 3.0.
# The following parameters were evaluated to assess the pharmacodynamic effects of TXA127 on peripheral platelet counts: nadir platelet count, maximal platelet count, and maximum percentage increase and decrease from baseline.
# [2] = system: patients with recurrent ovarian cancer receiving gemcitabine and a platin; assay: Phase 2 study: adverse events / safety analysis; type: in vivo, human
# Text: as §1, §2, §3
# Thirty-two patients who underwent randomization were included in the efficacy analysis according to their randomly assigned treatment group (intention-to-treat principle). Two additional patients were excluded from this analysis: one patient treated with 100 mcg/kg TXA127 was excluded due to consent withdrawal and one patient treated with 300 mcg/kg TXA127 was excluded due to disease progression. Both patients initiated a single cycle of chemotherapy and had no study drug-related adverse events. All patients were included in the safety analysis.
smiles,measurement,setting,value
"CC[C@H](C)[C@H](NC(=O)[C@H](Cc1ccc(O)cc1)NC(=O)[C@@H](NC(=O)[C@H](CCCNC(=N)N)NC(=O)[C@@H](N)CC(=O)O)C(C)C)C(=O)N[C@@H](Cc1c[nH]cn1)C(=O)N1CCC[C@H]1C(=O)O [TXA127, Asp-Arg-Val-Tyr-Ile-His-Pro]",ANC relative to placebo (in words),[1]; 100 mcg/kg TXA127,decrease in the nadir ANC relative to placebo; also recorded: significant reduction in ANC
same,maximal percentage decrease in ANC post-baseline,[1]; 100 mcg/kg TXA127,85%
same,maximal percentage decrease in ANC post-baseline,[1]; 300 mcg/kg TXA127,78%
same,Frequency of Adverse Events: Abdominal Distension,[2]; 100 mcg group (11 patients),1
same,Frequency of Adverse Events: Abdominal Pain,[2]; 100 mcg group (11 patients),4
same,Frequency of Adverse Events: Anaemia,[2]; 100 mcg group (11 patients),4
same,Frequency of Adverse Events: Arthralgia,[2]; 100 mcg group (11 patients),1
same,Frequency of Adverse Events: Back Pain,[2]; 100 mcg group (11 patients),5
same,Frequency of Adverse Events: Constipation,[2]; 100 mcg group (11 patients),7
same,Frequency of Adverse Events: Cough,[2]; 100 mcg group (11 patients),0
same,Frequency of Adverse Events: Decreased Appetite,[2]; 100 mcg group (11 patients),3
same,Frequency of Adverse Events: Dizziness,[2]; 100 mcg group (11 patients),3
same,Frequency of Adverse Events: Dyspepsia,[2]; 100 mcg group (11 patients),4
same,Frequency of Adverse Events: Dyspnea,[2]; 100 mcg group (11 patients),0
same,Frequency of Adverse Events: Dysuria,[2]; 100 mcg group (11 patients),2
same,Frequency of Adverse Events: Epistaxis,[2]; 100 mcg group (11 patients),0
same,Frequency of Adverse Events: Fatigue,[2]; 100 mcg group (11 patients),6
same,Frequency of Adverse Events: Headache,[2]; 100 mcg group (11 patients),5
same,Frequency of Adverse Events: Hypersensitivity,[2]; 100 mcg group (11 patients),1
same,Frequency of Adverse Events: Leukopenia,[2]; 100 mcg group (11 patients),3
same,Frequency of Adverse Events: Nausea,[2]; 100 mcg group (11 patients),7
same,Frequency of Adverse Events: Neutropenia,[2]; 100 mcg group (11 patients),5
same,Frequency of Adverse Events: Oropharyngeal Pain,[2]; 100 mcg group (11 patients),1
same,Frequency of Adverse Events: Pyrexia,[2]; 100 mcg group (11 patients),3
same,Frequency of Adverse Events: Rash,[2]; 100 mcg group (11 patients),1
same,Frequency of Adverse Events: Thrombocytopenia,[2]; 100 mcg group (11 patients),5
same,Frequency of Adverse Events: Vomiting,[2]; 100 mcg group (11 patients),4
same,thrombocytosis following treatment,[2]; 100 mcg/kg TXA127,One patient experienced thrombocytosis
same,patients who discontinued study drug due to a treatment-emergent adverse event,[2]; 100 mcg/kg group,Two
same,Frequency of Adverse Events: Abdominal Distension,[2]; 300 mcg group (13 patients),4
same,Frequency of Adverse Events: Abdominal Pain,[2]; 300 mcg group (13 patients),1
same,Frequency of Adverse Events: Anaemia,[2]; 300 mcg group (13 patients),5
same,Frequency of Adverse Events: Arthralgia,[2]; 300 mcg group (13 patients),1
same,Frequency of Adverse Events: Back Pain,[2]; 300 mcg group (13 patients),5
same,Frequency of Adverse Events: Constipation,[2]; 300 mcg group (13 patients),5
same,Frequency of Adverse Events: Cough,[2]; 300 mcg group (13 patients),2
same,Frequency of Adverse Events: Decreased Appetite,[2]; 300 mcg group (13 patients),0
same,Frequency of Adverse Events: Dizziness,[2]; 300 mcg group (13 patients),3
same,Frequency of Adverse Events: Dyspepsia,[2]; 300 mcg group (13 patients),2
same,Frequency of Adverse Events: Dyspnea,[2]; 300 mcg group (13 patients),5
same,Frequency of Adverse Events: Dysuria,[2]; 300 mcg group (13 patients),1
same,Frequency of Adverse Events: Epistaxis,[2]; 300 mcg group (13 patients),1
same,Frequency of Adverse Events: Fatigue,[2]; 300 mcg group (13 patients),7
same,Frequency of Adverse Events: Headache,[2]; 300 mcg group (13 patients),5
same,Frequency of Adverse Events: Hypersensitivity,[2]; 300 mcg group (13 patients),2
same,Frequency of Adverse Events: Leukopenia,[2]; 300 mcg group (13 patients),2
same,Frequency of Adverse Events: Nausea,[2]; 300 mcg group (13 patients),9
same,Frequency of Adverse Events: Neutropenia,[2]; 300 mcg group (13 patients),8
same,Frequency of Adverse Events: Oropharyngeal Pain,[2]; 300 mcg group (13 patients),1
same,Frequency of Adverse Events: Pyrexia,[2]; 300 mcg group (13 patients),2
same,Frequency of Adverse Events: Rash,[2]; 300 mcg group (13 patients),5
same,Frequency of Adverse Events: Thrombocytopenia,[2]; 300 mcg group (13 patients),2
same,Frequency of Adverse Events: Vomiting,[2]; 300 mcg group (13 patients),5
same,patients who discontinued study drug due to a treatment-emergent adverse event,[2]; 300 mcg/kg group,Two
same,safety with these chemotherapy regimens,[2]; up to 6 cycles of gemcitabine + platin,The safety of TXA127 was demonstrated
